What all share (format): cell-based, human
One test concerns versican. Briefly: RT-PCR expression of versican in methylated colon cancer cell lines after demethylating treatment. Conditions: 1 μM for 2-5 days. From the text:
To determine whether some of these clones truly represented genes silenced by methylation, we examined the versican gene in more detail. Versican is a secreted glycoprotein that appears to be regulated by the Rb tumor suppressor gene. MINT11 corresponds to part of exon 1 and part of intron 1 of the versican gene (FIG. 3A). Hypermethylation of the two SmaI sites in exon 1 and intron 1 in colon cancer cell lines was confirmed by both Southern blot analysis and MCA. In order to determine if this methylation was representative of the entire CGI, including the proximal promoter, PCR was performed on bisulfite-treated DNA using primers designed to amplify the region around the transcription start site of this gene. The PCR product was then digested with restriction enzymes that distinguish methylated from unmethylated DNA. […] In primary colon tumors, versican was hypermethylated in 17 out of 25 cases (68%). […] The level of methylation in normal colon mucosa increased with age of the patient (FIG. 3C), from an average of 6.9% in patients between 20 and 30 years of age, to an average of 28.9% in patients over 80. […] Using RT-PCR, we next examined the expression of versican in normal colon mucosa and CRC cell lines.
Total RNA was prepared from normal colon epithelium and tumor cell lines using TRIZOL (GIBCO-BRL). […] The expression of versican was determined by RT-PCR using the primers […]

For test [1], the system named is region 7 of CACNA1G CpG island. Briefly: Bisulfite-PCR methylation analysis of the 5′ CpG island of CACNA1G after treatment. Conditions: same cell lines after treatment; bisulfite-PCR (FIG. 3C). The text has this:
The CACNA1G CpG island is 4 kb, and is larger than many typical CpG islands. MINT31 corresponds to the 5′ edge of the island while CACNA1G is in the 3′ region. It is not known whether large CpG islands such as this are coordinately regulated with regards to protection from methylation, and aberrant methylation in cancer. To address this issue, the methylation status of the 5′ region of CACNA1G was studied using bisulfite-PCR of DNA from normal tissues as well as 35 human cancer cell lines from colon, lung, prostate, breast and hematopoietic tumors. The CpG island was divided into 8 regions and their methylation status was examined separately. The genomic DNA was treated with sodium bisulfite and PCR amplified using primers containing no or a minimum number of CpG sites. Methylated alleles were detected by digesting the PCR products using restriction enzymes which specifically cleave sites created or retained due to the presence of methylated CpGs. None of the regions was methylated in normal colon, consistent with a uniform protection against de-novo methylation. […]

The next test relates to CACNA1G. As to the kind of experiment: Re-expression of CACNA1G mRNA (RT-PCR) in methylated tumor cell lines after methyl-transferase inhibitor treatment. Set-up: dose or concentration left out as unconfirmed. Conditions: RKO, SW48, Raji (pattern 4) and MB-231, MB-435 (pattern 5) cell lines; treated. The method, then:
To determine the expression of CACNA1G in normal and neoplastic human cells, RT-PCR was performed using cDNA from various normal tissues and from a panel of 27 tumor cell lines. CACNA1G was expressed ubiquitously in a variety of tissues and cell lines. In normal tissues expression was relatively low but easily detectable, while most cell lines had relatively high expression of CACNA1G. However, some cell lines had negligible or totally absent levels of CACNA1G expression. The results of CACNA1G expression was correlated with the detailed methylation analysis previously described. In this analysis, a remarkable pattern emerged. Methylation of region 1-4 and 8 had no effect on CACNA1G expression. However, there was a strong correlation between methylation of regions 5-7 and expression of the gene. In fact, all cell lines that lack methylation of this region strongly express the gene. All 6 cell lines with pattern 4 methylation studied had no detectable expression. Finally, the 7 cell lines with pattern 5 methylation (examples DLD-1 and MB-453) had variable levels of expression ranging from very low to near normal. […]
Total RNA was prepared from normal colon epithelium and tumor cell lines using TRIZOL (GIBCO-BRL). […] The expression of versican was determined by RT-PCR using the primers

Here are results for one compound from patent US8133986B2, “Methylated CpG island amplification (MCA)” (The Johns Hopkins University School of Medicine, priority 1998, dated 2012).

Structures are written as SMILES.

Consider `Nc1ncn([C@H]2C[C@H](O)[C@@H](CO)O2)c(=O)n1` [5-aza-deoxycytidine, 5-aza-2′-deoxycytidine], for which the Expression of versican entry in the test on versican is recorded as “easily restored”. The “Methylation of region 7 of CACNA1G” value in test [1] is “demethylation of region 7 was observed”. Further, in the test with CACNA1G, the “CACNA1G mRNA expression” value is “re-expressed”.
